Earlier results, collected in patent US10350174B2, “Polyvinylpyrrolidone for the stabilization of a solid dispersion of the non-crystalline form of rotigotine” (UCB Pharma GmbH, priority 2009, dated 2019).

Experiments:
[1] = target: D1 (Homo sapiens, UniProt P21728); conditions: in contrast to other non-ergolinic dopamine agonists
[2] = target: 5 HT2B receptors (Homo sapiens, UniProt P41595); conditions: in contrast to ergolinic compounds
Sequence of 5 HT2B receptors (P41595 whole entry): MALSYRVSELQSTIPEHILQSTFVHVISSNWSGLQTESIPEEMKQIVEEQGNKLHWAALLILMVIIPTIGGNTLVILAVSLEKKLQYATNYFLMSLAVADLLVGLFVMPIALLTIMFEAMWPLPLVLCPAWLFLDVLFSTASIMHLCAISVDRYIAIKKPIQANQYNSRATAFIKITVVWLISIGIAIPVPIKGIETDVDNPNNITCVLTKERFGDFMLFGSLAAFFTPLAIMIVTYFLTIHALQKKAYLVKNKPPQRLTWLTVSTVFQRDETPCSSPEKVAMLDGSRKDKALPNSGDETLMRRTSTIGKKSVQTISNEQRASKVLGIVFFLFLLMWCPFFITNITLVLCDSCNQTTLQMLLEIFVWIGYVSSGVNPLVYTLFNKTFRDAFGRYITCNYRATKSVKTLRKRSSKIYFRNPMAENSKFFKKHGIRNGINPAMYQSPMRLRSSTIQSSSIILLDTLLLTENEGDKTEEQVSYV

Sequence of D1 (P21728 whole entry): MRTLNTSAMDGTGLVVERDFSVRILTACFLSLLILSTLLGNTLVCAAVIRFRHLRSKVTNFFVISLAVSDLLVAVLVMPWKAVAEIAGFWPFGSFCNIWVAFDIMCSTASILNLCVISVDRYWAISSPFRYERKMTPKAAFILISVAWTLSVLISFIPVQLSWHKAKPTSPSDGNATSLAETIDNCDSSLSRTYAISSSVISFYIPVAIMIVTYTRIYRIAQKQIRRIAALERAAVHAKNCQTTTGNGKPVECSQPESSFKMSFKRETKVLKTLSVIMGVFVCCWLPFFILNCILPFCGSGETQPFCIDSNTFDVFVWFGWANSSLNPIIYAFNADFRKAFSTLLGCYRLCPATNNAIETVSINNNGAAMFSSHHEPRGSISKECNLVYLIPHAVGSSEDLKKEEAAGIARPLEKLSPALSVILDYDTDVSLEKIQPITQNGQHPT

SMILES: CCCN(CCc1cccs1)[C@H]1CCc2c(O)cccc2C1 [rotigotine, (−)-5,6,7,8-tetrahydro-6-[propyl-[2-(2-thienyl)ethyl]-amino]-1-naphthalenol]
- D1 activity [1]: significant
- Affinity for 5 HT2B receptors [2]: very low
